Source: patent publication US9598448B2, “Osmium (II) arene imino anti-cancer complexes” (University of Warwick, priority 2010, dated 2017)
Entries after “also recorded” stand apart in the source; their conditions may differ.

Columns and labels:
PC-3 prostate = experiment: MTT growth inhibition assay, PC-3; type: cell-based, human; conditions: 96 h
Experimental: (§1) Tumor cell growth inhibition was assessed using the MTT assay.^13 2×10^3 cells were inoculated into a 96-well plate and incubated overnight at 37° C. in a humidified atmosphere containing 5% CO2. Complexes were solubilised in DMSO as above, and then diluted in complete cell culture medium to give a broad range of concentrations. Cisplatin was included in the screen as a comparator. Medium was removed from each well and replaced with complex or control solutions, and the plates then incubated for a further 96 hours. After 96 h culture medium was removed and 200 μL of 0.5 mg mL^−1 MTT solution (Sigma) in complete medium added to each well. Following further 4 h incubation, the solution was removed from each well and 150 μL of DMSO (Sigma) added to solubilise the formazan crystals resulting from MTT conversion. Absorbance values for the resulting solutions were read at 550 nm on a microplate reader and cell survival calculated as the absorbance of treated cells divided by the control. Results were expressed in terms of IC50 values (i.e. concentration of compound required to kill 50% of cells) and all experiments were performed in triplicate.
(§2) The following human cancer cell lines were cultured in RPMI 1640 cell culture medium supplemented with 1 mM sodium pyruvate, 2 mM L-glutamine and 10% fetal bovine serum (all from Sigma): A549 non-small cell lung, HCT-116 colon, MCF-7 breast, PC-3 prostate (all from LGC Promochem, Teddington, UK), A2780/cis ovarian (cisplatin-resistant) and RT-112 bladder (both from ECACC, Salisbury, UK).

[1] = test system: microtubules in A2780 human ovarian cancer cell line; experiment: Immunofluorescence of microtubules by confocal microscopy; type: cell-based; conditions: 24 h treatment, 1 μM
Experimental: A2780 Cells were seeded on Lab-Tek™ Chamber Slides (Thermo Scientific Nunc) 10,000 cells/chamber, after 24 h incubation, osmium compound [Os(η^6-bip)(2-F-Azpy)I]PF6 at different concentrations were added and incubate for another 24 h. Cells were fixed with 4% formaldehyde in PBS (20 min, 310 K), then rinsed with PBS (3×2 mL×2 min), and permeabilized with 0.1% Triton X-100 solution (PBS solution) for 15 min at ambient temperature. The cells were blocked with blocking buffer (2 mg/mL BSA, overnight at […]), and then, the cell monolayers were incubated (1 h, 310 K) with monoclonal anti-α-tubulin-Alexa 488 (4 μg/mL) (Invitrogen Molecular Probles, Catalog No. 32-2588). After the incubation, the cells were washed with PBS and the immunofluorescence was detected using a Leica SP5 fluorescence confocal microscope, with 100× objective.

[2] = test system: human ovarian A2780 cancer cells; experiment: SRB growth inhibition assay, A2780; type: cell-based; conditions: SRB; 24 h exposure, 72 h recovery; read-out: IC50 values for azopyridine complexes against A2780 ovarian cancer cells
Experimental: The concentrations of the osmium complexes that inhibit 50% of the proliferation of human ovarian A2780 cancer cells were determined by sulforhodamine B test. A2780 cells were seeded in 96-well plate (Falcon) at 5000 cells/well, after the incubation for 48 h, The complexes were solubilised in DMSO (Sigma) to provide 10 mM stocks. The stocks were serially diluted by cell culture media to give concentrations four-fold than the final concentrations for the assay. The dilutions of complexes in cell culture media were added to the 96-well plate with cells in triplicates to achieve the final concentrations. The final DMSO concentration in each well was no more than 1% (v/v). The complexes were removed after 24 h. The cells were washed with Phosphate Buffered Saline once and cell culture media was added 150 μL/well. The cells were recovered for 72 h. The surviving cells were fixed by adding 150 μL/well of 50% (w/v) trichloroacetic acid and incubated for 1 h at 277 K (277 K). The plates were washed with tap water three times and dried under a flow of warm air, 0.4% sulforhodamine B (Sigma) solution 100 μL/well followed by washing with 1% acetic acid five times and dried under a flow of warm air. The dye was dissolved in 10 mM Tris buffer […] The absorbance of each well was obtained by the Multiskan Ascent plate reader (Labsystems) at 540 nm. The absorbance value of SRB in each well is directly proportional to the cell number. Then the absorbance can be plotted against concentration and the IC50 determined by using Origin software.
The cytotoxicity studies were carried out as described previously above.

A549 non-small cell lung = experiment: MTT growth inhibition assay, A549; type: cell-based, human; conditions: 96 h
Experimental: as §1, §2

RT-112 bladder = experiment: MTT growth inhibition assay, RT-112; type: cell-based, human; conditions: MTT, 96 h
Experimental: as §1, §2

MCF-7 breast = experiment: MTT growth inhibition assay, MCF-7; type: cell-based, human; conditions: 96 h
Experimental: as §1, §2

tubulin = experiment: Tubulin polymerization assay; type: biochemical; conditions: Osmium Compounds at 10 μM; 37° C., 60 min
Experimental: To follow the anticancer mechanism indicated by COMPARE, We have investigated whether osmium complexes can interacted directly with tubulin.
A Cytoskeleton tubulin polymerization assay kit (catalog no BK004) was used in the tubulin polymerization study. Briefly, 10 μL of general tubulin buffer (80 mM PIPES, pH 6.9, 2 mM MgCl2, and 0.5 mM EGTA) containing osmium compound, colchicine or taxol was pipetted into the prewarmed 96 well microplate. Tubulin (defrosted to room temperature from −80° C. and then placed on ice before use) was diluted with tubulin polymerization buffer with 1 mM GTP to a final concentration of 4 mg mL^−1. Diluted tubulin (100 μL) was added into the wells containing osmium compound, colchicine or taxol. Diluted tubulin (100 μL) mixed with general tubulin buffer (10 μL) served as control. The absorbance at 340 nm was read immediately with a Tecan microplate reader.

[3] = Stability and hydrolysis (1H NMR, MS, UV-vis); type: physicochemical; conditions: 310 K, 24 h, 95% deuterated phosphate buffer (10 mM)/5% MeOD-d4
[4] = test system: Balb/c immunodeficient nude mice bearing HCT-116 tumours; experiment: Evaluation of in vivo toxicity in nude mouse HCT-116 xenograft model; conditions: i.v. day 0, doses from 2 up to 40 mg kg^−1, monitored 15 days
Experimental: Female Balb/c immunodeficient nude mice (Harlan, Loughborough, UK) aged 6-12 weeks were used. Mice received Harlan 2018 diet (Harlan) and water ad libitum. Mice were kept in cages in an air-conditioned room with regular alternating cycles of light and darkness. All animal procedures were carried out under a project license issued by the UK Home Office and UKCCCR guidelines (Workman P, Twentyman P, Balkwill F et al: United Kingdom Co-ordinating Committee on Cancer Research (UKCCCR) Guidelines for the Welfare of Animals in Experimental Neoplasia (Second Edition). Br J Cancer 77: 1-10, 1998) were followed throughout.
HCT-116 was used in the study. Tumours were excised from a donor animal, placed in sterile physiological saline containing antibiotics and cut into small fragments of approximately 2 mm^3. Under brief general inhalation anaesthesia, fragments were implanted in the […] abdominal flank of each mouse using a trocar. Once the tumours could accurately be measured using callipers (mean tumour volume of approximately 50 mm^3), treatment commenced. Complexes 3 and 6 were solubilised in 10% DMSO; 5% Tween-80; 85% saline and were administered intravenously to groups of 2 mice on day 0. Animals were weighed frequently and monitored for any deleterious effects over a period of 15 days.

## [(η^6-p-cym)Os(Azpy-NMe2)I]PF6 [Complex 6]
PC-3 prostate
  IC50: 600 nM
[1]
  inhibition of microtubule formation in cells: inhibition forming microtubules were observed
[2]
  IC50: 200 nM
A549 non-small cell lung
  IC50: < 300 nM
RT-112 bladder
  IC50: < 300 nM
MCF-7 breast
  IC50: 79 nM
tubulin
  Inhibition of Tubulin Polimerziation: 28.6%
[3]
  stability and hydrolysis in aqueous solution: remained stable and did not hydrolyze
[4]
  toxicity / deleterious effects: no evident toxicity; also recorded: negligible deleterious effects
